Results reported in US12584905B2, “Method for identifying molecular markers of children's skin” (LABORATOIRES EXPANSCIENCE, priority 2012, dated 2026).

Experiments:
Type in all cases: cell-based, human
[1] = system: reconstructed epidermises from donors of 1 month of age; assay: Histological analysis (haematoxylin and eosin) of thickness of live cell layers of treated reconstructed epidermises; conditions: histology, reconstructed epidermis from 1-month-old donors, applied for 16 hours, control = 100%, SDS at 0.4%
Experimental: (§1) Reconstructed skin models were generated using these samples. Reconstructed epidermises were thus produced with the various donors selected using the technique by Poumay et al. (Arch Dermatol Res, 296(5): 203-211, 2004). After two days of submerged culture, the reconstructed epidermises were cultured at the air/liquid interface for 5 or 9 days. For the duration of the culture, the medium was replenished every 2 to 3 days.
(§2) Epidermises were reconstructed as specified in example 1 with keratinocytes from donors of 1 month of age. The products, a cleansing cream and a moisturising lotion both containing avocado perseose, were applied on these reconstructed epidermises for 16 hours. A control was produced by applying 0.4% SDS on control reconstructed epidermis samples.
(§3) IL-8 protein was assayed in the culture supernatant using an Elisa test. The cell viability was evaluated using the MTT test. Finally, a histological analysis was conducted on tissues included in paraffin by means of haematoxylin and eosin staining.

[2] = system: reconstructed epidermises from donors of 1 month of age; assay: Cell viability (MTT test) of reconstructed epidermises after product application; conditions: reconstructed epidermis from 1-month-old donors, applied for 16 hours
Experimental: as §1, §2, §3

IL-8 protein = IL-8 protein assay in culture supernatant (Elisa test) of treated reconstructed epidermises; conditions: reconstructed epidermis from 1-month-old donors, applied for 16 hours
Experimental: as §1, §2, §3

For `CCCCCCCCCCCCOS(=O)(=O)[O-].[Na+]` [SDS], the “Thickness of live layers” value [1] was 58%, the Viability ([2]; MTT test, control = 100%, SDS at 0.4%) was 2% and the “Effect on cell viability (in words)” value [2] was “very significantly reduced”. For the same molecule, the IL8 inflammatory molecule (IL-8 protein; Elisa in culture supernatant, control = 100%, SDS at 0.4%) was 602% and the “Effect on IL-8 expression (in words)” value (IL-8 protein) was “significant increase”.
